What all share (type): functional
The nature of assay [1]: Growth inhibition of human ovarian cancer cells at 10^-10 M. Particulars: Cancer cell lines, read-out: GI.
A short description of assay [2]: Growth inhibition of human lung cancer cells at 10^-10 M. Particulars: Cancer cell lines, read-out: GI.
The nature of assay [3]: Growth inhibition of human breast cancer cells at 10^-10 M. Particulars: Cancer cell lines, read-out: GI.
Assay [4] in a line: Growth inhibition of human renal cancer cells at 10^-10 M. Particulars: Cancer cell lines, read-out: GI.
The nature of assay [5]: Growth inhibition of human colon cancer cells at 10^-10 M. Particulars: Cancer cell lines, read-out: GI.
The next assay deals with OVCAR-3. The assay is described as follows: In vivo antineoplastic activity against human OVCAR-3 cells at 25 ug/kg.
The subject of assay [6] is P388. Kind of assay: Antineoplastic activity against mouse P388 cells.
A further assay concerns B16. The assay is described as follows: In vivo antineoplastic activity against mouse B16 cells at 11 ug/kg.
Assay [7] concerns P388. The assay is described as follows: Antineoplastic activity against mouse P388 cells at 3 mg/kg relative to control.
Assay [8] relates to P388. The assay is described as follows: Antineoplastic activity against mouse P388 cells at 12.5 mg/kg relative to control.
In assay [9] the test system is P388. The assay is described as follows: Antineoplastic activity against mouse P388 cells at 32 mg/kg relative to control.
Assay [10] relates to P388. Kind of assay: Antineoplastic activity against mouse P388 cells at 100 mg/kg relative to control.

For `C=C(Cl)/C=C/[C@H](O)CC(=C)C[C@H]1O[C@@H]2[C@H](C)[C@@H](OC(=O)C[C@@H]3C[C@@H](OC(C)=O)C[C@]4(C[C@](C)(O)C[C@@H](CC(=C)[C@H](C)[C@@H](OC(C)=O)[C@H](C)C(=O)C[C@H]5C[C@@H](OC)C[C@]6(C[C@H](O)C[C@@H](/C=C\CCC[C@@H]7O[C@@](O)(C[C@@H](O)[C@@H]7C)[C@H]2O)O6)O5)O4)O3)[C@@H]1O`, the inhibition of growth at 0.0001 µM in [1], in [2], in assay [3], in [4] and in [5] was 50% in each case. This molecule also showed an Activity with OVCAR-3 of 70%.

As to `C[C@@H]1[C@]2(O[C@H]3C=C4[C@@H]5CC[C@H]6Cc7nc8c(nc7C[C@]6(C)[C@H]5C[C@@H](O)[C@]4(C)[C@]31O)C[C@@H]1CC[C@H]3C4=CC[C@@H]5[C@H](C)[C@@]6(OC[C@]45C(=O)C[C@@H]3[C@@]1(C)C8)OC(C)(C)C[C@H]6O)O[C@](C)(CO)C[C@H]2O` [CEPHALOSTATIN 1], the ED50 in the assay with P388 [6] came out at 1 ×10⁻⁹ ug/ml.

Consider `CC[C@H](C)[C@@H]([C@@H](CC(=O)N1CCC[C@H]1[C@H](OC)[C@@H](C)C(=O)N[C@@H](Cc1ccccc1)c1nccs1)OC)N(C)C(=O)[C@@H](NC(=O)[C@H](C(C)C)N(C)C)C(C)C` [DOLASTATIN-10], for which the Activity in the assay on B16 amounted to 80%.

As to `C=C1C(=O)O[C@@H]2C[C@@H](C)[C@@H]3C=CC(=O)[C@@]3(C)[C@@H](O)[C@H]12` [HELENALIN], the T/C in the assay on P388 [7] was determined as 220.

In the assay with P388 [8], `C=C1C(=O)O[C@@H]2[C@H](O)[C@@H](C)[C@@H]3C=CC(=O)[C@@]3(C)[C@@H](OC(=O)/C(C)=C\C)[C@H]12` [MULTIGILIN] showed a T/C of 164.

`C=C1C(=O)O[C@@H]2C(=O)[C@@H](C)[C@@H]3C=CC(=O)[C@@]3(C)[C@@H](OC(=O)/C(C)=C\C)[C@H]12` [MULTISTATIN] had a T/C in the assay on P388 [9] of 131.

`NCCS(=O)(=O)O` [TAURINE] had a T/C in the assay on P388 [10] of 123.

Values taken from ChEMBL document CHEMBL1158292, “Progress in the discovery of biosynthetic anticancer drugs” (1996).
